Results: PubChem BioAssay (NCI)
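Briefly, cells in 96-well plates were exposed to five compound concentrations for 48 h, and endpoints were estimated by linear interpolation. At the TGI there is no net growth.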

What was measured:
Assay in all cases: NCI anticancer screen, dose series, 48 h
DMS 273 small cell lung = tested on: DMS 273 small cell lung
DMS 114 small cell lung = tested on: DMS 114 small cell lung
ACHN renal = tested on: ACHN renal
XF 498 CNS = tested on: XF 498 CNS
OVCAR-5 ovarian = tested on: OVCAR-5 ovarian
MALME-3M melanoma = tested on: MALME-3M melanoma
CAKI-1 renal = tested on: CAKI-1 renal
IGROV1 ovarian = tested on: IGROV1 ovarian
OVCAR-3 ovarian = tested on: OVCAR-3 ovarian
786-0 renal = tested on: 786-0 renal
EKVX NSCLC = tested on: EKVX NSCLC
UACC-257 melanoma = tested on: UACC-257 melanoma
SF-539 CNS = tested on: SF-539 CNS
UO-31 renal = tested on: UO-31 renal
OVCAR-4 ovarian = tested on: OVCAR-4 ovarian
NCI-H226 lung = tested on: NCI-H226 lung
SF-295 CNS = tested on: SF-295 CNS
UACC-62 melanoma = tested on: UACC-62 melanoma
NCI-H460 lung = tested on: NCI-H460 lung
LOX IMVI melanoma = tested on: LOX IMVI melanoma
MOLT-4 leukemia = tested on: MOLT-4 leukemia
RPMI-8226 leukemia = tested on: RPMI-8226 leukemia
SN12C renal = tested on: SN12C renal
SW-620 colon = tested on: SW-620 colon
DLD-1 colon = tested on: DLD-1 colon
HCC-2998 colon = tested on: HCC-2998 colon
HCT-116 colon = tested on: HCT-116 colon
OVCAR-8 ovarian = tested on: OVCAR-8 ovarian
SF-268 CNS = tested on: SF-268 CNS
A498 renal = tested on: A498 renal
K-562 leukemia = tested on: K-562 leukemia
KM20L2 colon = tested on: KM20L2 colon
SK-MEL-2 melanoma = tested on: SK-MEL-2 melanoma
M19-MEL melanoma = tested on: M19-MEL melanoma
TK-10 renal = tested on: TK-10 renal
HCT-15 colon = tested on: HCT-15 colon
HT29 colon = tested on: HT29 colon
HL-60(TB) leukemia = tested on: HL-60(TB) leukemia
NCI-H23 lung = tested on: NCI-H23 lung
NCI-H522 lung = tested on: NCI-H522 lung
HOP-18 NSCLC = tested on: HOP-18 NSCLC
M14 melanoma = tested on: M14 melanoma
A549 NSCLC = tested on: A549 NSCLC
LXFL 529 NSCLC = tested on: LXFL 529 NSCLC
SNB-19 CNS = tested on: SNB-19 CNS
CCRF-CEM leukemia = tested on: CCRF-CEM leukemia
HOP-92 NSCLC = tested on: HOP-92 NSCLC
COLO 205 colon = tested on: COLO 205 colon
SK-OV-3 ovarian = tested on: SK-OV-3 ovarian
U251 CNS = tested on: U251 CNS
KM12 colon = tested on: KM12 colon

Measured: TGI

O=C(CCC(=O)Nc1ccc(Cl)c(Cl)c1)CC(=O)c1ccc(Cl)cc1
> 100 µM: all assays above
